Experimental data as given in patent publication US20260062387A1, “SALT-INDUCIBLE KINASE INHIBITOR COMPOUND AND PHARMACEUTICAL COMPOSITION INCLUDING THE SAME” (MITSUBISHI TANABE PHARMA CORPORATION, priority 2023, published 2026).

Legend:
Assay type in all cases: biochemical
GST-tagged SIK1 = GST-tagged SIK1 (Homo sapiens (Human), UniProt P57059); test: SIK1 inhibition test (ADP-Glo Max Assay); details: enzyme 20 nM, AMARA Peptide 200 μM, ATP 1 mM, 2 hours room temperature
Procedure, shortened: (§1)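 GST-tagged human SIK1, SIK2 and SIK3 at 20 nM, 3 nM and 100 nM final in Tris pH 7.5 buffer, with AMARA peptide (200 μM for SIK1/SIK2, 100 μM for SIK3), 1 mM ATP and 5 mM MgCl2. Reaction ran 2 h at room temperature. ADP read by ADP-Glo Max luminescence, and IC50 fitted from 16 concentrations.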

GST-tagged SIK2 = GST-tagged SIK2 (Homo sapiens (Human), UniProt Q9H0K1); test: SIK2 inhibition test (ADP-Glo Max Assay); details: enzyme 3 nM, AMARA Peptide 200 μM, ATP 1 mM, 2 hours room temperature
Procedure, shortened: as §1

GST-tagged SIK3 = GST-tagged SIK3 (Homo sapiens (Human), UniProt Q9Y2K2); test: SIK3 inhibition test (ADP-Glo Max Assay); details: enzyme 100 nM, AMARA Peptide 100 μM, ATP 1 mM, 2 hours room temperature
Procedure, shortened: as §1

GST-tagged SIK2, sequence (Q9H0K1 whole entry): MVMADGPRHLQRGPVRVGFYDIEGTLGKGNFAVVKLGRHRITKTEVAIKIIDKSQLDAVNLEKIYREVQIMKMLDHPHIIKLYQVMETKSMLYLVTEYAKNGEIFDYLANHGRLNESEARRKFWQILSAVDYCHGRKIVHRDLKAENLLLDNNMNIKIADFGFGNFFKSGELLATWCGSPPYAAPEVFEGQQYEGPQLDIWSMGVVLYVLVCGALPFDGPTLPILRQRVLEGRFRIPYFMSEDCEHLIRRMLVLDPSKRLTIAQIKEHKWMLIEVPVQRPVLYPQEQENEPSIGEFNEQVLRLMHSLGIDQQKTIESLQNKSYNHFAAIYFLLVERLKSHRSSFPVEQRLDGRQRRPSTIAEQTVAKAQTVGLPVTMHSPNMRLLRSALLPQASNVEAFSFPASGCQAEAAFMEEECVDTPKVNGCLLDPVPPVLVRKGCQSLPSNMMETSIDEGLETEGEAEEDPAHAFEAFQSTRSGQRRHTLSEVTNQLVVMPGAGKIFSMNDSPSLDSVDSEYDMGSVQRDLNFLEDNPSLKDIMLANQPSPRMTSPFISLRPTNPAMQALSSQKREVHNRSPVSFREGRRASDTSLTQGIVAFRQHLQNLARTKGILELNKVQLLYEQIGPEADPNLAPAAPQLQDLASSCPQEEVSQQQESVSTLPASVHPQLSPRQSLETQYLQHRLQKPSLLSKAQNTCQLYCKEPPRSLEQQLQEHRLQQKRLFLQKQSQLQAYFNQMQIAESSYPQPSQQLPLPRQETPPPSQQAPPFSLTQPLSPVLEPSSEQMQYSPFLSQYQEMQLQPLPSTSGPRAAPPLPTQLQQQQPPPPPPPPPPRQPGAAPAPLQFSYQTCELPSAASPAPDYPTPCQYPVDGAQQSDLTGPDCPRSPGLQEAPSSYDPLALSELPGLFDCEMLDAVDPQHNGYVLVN
GST-tagged SIK1, sequence (P57059 whole entry): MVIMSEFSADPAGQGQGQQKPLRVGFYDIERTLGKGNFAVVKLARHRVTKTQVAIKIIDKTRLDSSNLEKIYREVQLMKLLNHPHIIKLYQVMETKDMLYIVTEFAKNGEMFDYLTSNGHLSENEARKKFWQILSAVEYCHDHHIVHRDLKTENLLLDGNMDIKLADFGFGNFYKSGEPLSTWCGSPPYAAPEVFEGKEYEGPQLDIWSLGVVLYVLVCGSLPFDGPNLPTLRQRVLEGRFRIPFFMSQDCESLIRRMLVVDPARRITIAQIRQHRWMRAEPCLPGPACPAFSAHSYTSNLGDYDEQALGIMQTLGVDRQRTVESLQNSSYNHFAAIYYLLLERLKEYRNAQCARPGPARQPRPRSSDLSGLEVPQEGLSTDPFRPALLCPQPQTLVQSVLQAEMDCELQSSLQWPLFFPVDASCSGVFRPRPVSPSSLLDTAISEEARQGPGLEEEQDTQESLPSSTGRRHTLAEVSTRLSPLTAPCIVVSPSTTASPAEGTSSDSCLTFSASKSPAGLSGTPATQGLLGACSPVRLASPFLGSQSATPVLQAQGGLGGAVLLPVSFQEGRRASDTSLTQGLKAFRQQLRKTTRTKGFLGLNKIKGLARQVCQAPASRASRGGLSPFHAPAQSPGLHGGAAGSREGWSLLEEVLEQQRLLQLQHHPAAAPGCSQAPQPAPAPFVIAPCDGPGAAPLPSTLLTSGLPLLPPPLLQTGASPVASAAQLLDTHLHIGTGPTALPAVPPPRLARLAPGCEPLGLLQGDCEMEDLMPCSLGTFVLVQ
GST-tagged SIK3, sequence (Q9Y2K2 whole entry): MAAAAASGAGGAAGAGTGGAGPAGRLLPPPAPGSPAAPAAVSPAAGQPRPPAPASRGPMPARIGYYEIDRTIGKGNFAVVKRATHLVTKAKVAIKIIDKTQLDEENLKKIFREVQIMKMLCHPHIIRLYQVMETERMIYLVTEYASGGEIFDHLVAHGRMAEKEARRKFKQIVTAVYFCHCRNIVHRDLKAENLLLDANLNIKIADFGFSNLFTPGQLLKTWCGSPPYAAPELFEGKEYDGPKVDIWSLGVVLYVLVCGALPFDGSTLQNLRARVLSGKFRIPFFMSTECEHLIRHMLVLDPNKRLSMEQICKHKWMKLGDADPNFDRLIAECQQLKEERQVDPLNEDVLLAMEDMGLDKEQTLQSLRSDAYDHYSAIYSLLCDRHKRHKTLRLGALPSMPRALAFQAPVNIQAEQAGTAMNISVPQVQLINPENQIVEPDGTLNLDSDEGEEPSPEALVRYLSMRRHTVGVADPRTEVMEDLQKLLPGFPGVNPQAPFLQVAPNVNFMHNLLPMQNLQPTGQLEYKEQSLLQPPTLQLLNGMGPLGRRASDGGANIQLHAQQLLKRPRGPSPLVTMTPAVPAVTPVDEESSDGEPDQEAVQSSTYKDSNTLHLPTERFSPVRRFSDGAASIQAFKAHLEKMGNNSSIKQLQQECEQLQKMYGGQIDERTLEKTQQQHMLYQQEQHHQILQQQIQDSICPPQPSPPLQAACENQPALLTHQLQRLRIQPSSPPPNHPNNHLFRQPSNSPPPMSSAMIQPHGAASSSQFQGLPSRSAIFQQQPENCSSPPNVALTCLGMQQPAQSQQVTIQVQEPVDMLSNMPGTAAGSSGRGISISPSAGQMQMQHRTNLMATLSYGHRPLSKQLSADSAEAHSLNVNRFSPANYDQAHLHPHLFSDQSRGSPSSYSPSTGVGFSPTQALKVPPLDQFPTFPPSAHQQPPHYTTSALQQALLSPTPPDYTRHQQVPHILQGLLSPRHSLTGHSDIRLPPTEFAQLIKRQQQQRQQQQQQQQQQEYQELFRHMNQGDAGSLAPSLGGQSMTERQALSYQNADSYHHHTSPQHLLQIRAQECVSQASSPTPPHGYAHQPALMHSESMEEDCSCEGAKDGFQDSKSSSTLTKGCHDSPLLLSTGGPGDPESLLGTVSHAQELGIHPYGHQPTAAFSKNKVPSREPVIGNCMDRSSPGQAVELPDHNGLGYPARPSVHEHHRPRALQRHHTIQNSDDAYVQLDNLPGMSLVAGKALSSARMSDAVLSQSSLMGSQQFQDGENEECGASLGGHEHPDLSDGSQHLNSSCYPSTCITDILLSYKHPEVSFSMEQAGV

Work on `COc1cc(-c2c3c(OCc4cncc(C#N)c4)cc(-c4cnn(C)c4)cc3nn2C)cc(OC(F)F)c1C(=O)N1CC(O)(C(F)(F)F)C1` [Example 104, 5-[[3-[3-(difluoromethoxy)-4-[3-hydroxy-3-(trifluoromethyl)azetidin-1-carbonyl]-5-methoxyphenyl]-2-methyl-6-(1-methylpyrazol-4-yl)indazol-4-yl]oxymethyl]pyridine-3-carbonitrile] yielded an IC50 (GST-tagged SIK1) of 6.4 nM, an IC50 (GST-tagged SIK2) of 1.8 nM and an IC50 (GST-tagged SIK3) of 4.8 nM.
Work on `COc1cc(-c2c3c(C(F)F)cc(-c4cnn(CC(C)(C)O)c4)cc3nn2C)cc(OC(F)F)c1C(=O)N[C@@H]1CC1(F)F` [Example 109] yielded an IC50 (GST-tagged SIK1) of 18 nM, an IC50 (GST-tagged SIK2) of 18.1 nM and an IC50 (GST-tagged SIK3) of 2.3 nM.
`COc1cc(-c2c3c(C#N)cc(-c4cnn(CC5(O)CCC5)c4)cc3nn2C)cc(OC(F)F)c1C(=O)N[C@@H]1CC1(F)F` [Example 110, 4-[4-cyano-6-[1-[(1-hydroxycyclobutyl)methyl]pyrazol-4-yl]-2-methylindazol-3-yl]-N-[(1R)-2,2-difluorocyclopropyl]-2-(difluoromethoxy)-6-methoxybenzamide] showed an IC50 (GST-tagged SIK1) of 6.5 nM, an IC50 (GST-tagged SIK2) of 3.2 nM and an IC50 (GST-tagged SIK3) of 1.7 nM.
`COc1cc(-c2c3c(C#N)cc(-c4cnn(CCC(C)(C)O)c4)cc3nn2C)cc(OC(F)F)c1C(=O)N[C@@H]1CC1(F)F` [Example 111, 4-[4-cyano-6-[1-(3-hydroxy-3-methylbutyl)pyrazo]-4-yl]-2-methylindazol-3-yl]-N-[(1R)-2,2-difluoro[cyclopropyl]-2-(difluoromethoxy)-6-methoxybenzamide] showed an IC50 (GST-tagged SIK1) of 6.2 nM, an IC50 (GST-tagged SIK2) of 1.7 nM and an IC50 (GST-tagged SIK3) of 1.7 nM.
`CCn1cc(-c2cc(C(F)F)c3c(-c4cc(OC)c(C(N)=O)c(OC(F)F)c4)n(C)nc3c2)cn1` [Example 112, 2-(difluoromethoxy)-4-[4-(difluoromethyl)-6-(1-ethylpyrazol-4-yl)-2-methylindazol-3-yl]-6-methoxybenzamide] showed an IC50 (GST-tagged SIK1) of 16.6 nM, an IC50 (GST-tagged SIK2) of 13.7 nM and an IC50 (GST-tagged SIK3) of 3 nM.
Work on `CCCn1cc(-c2cc(C(F)F)c3c(-c4cc(OC)c(C(N)=O)c(OC(F)F)c4)n(C)nc3c2)cn1` [Example 113, 2-(difluoromethoxy)-4-[4-(difluoromethyl)-2-methyl-6-(1-propylpyrazol-4-yl)indazol-3-yl]-6-methoxybenzamide] yielded an IC50 (GST-tagged SIK1) of 19.7 nM, an IC50 (GST-tagged SIK2) of 15.6 nM and an IC50 (GST-tagged SIK3) of 2.7 nM.
Work on `COc1cc(-c2c3c(C#N)cc(-c4cnn(CC(C)(C)O)c4)cc3nn2C)cc(OC(F)F)c1C(=O)N[C@@H]1CC1(F)F` [Example 114] yielded an IC50 (GST-tagged SIK1) of 12.6 nM, an IC50 (GST-tagged SIK2) of 4.1 nM and an IC50 (GST-tagged SIK3) of 0.7 nM.
For `COc1cc(-c2c3c(C#N)cc(-c4cnn(CC(F)F)c4)cc3nn2C)cc(OC(F)F)c1C(=O)N[C@@H]1CC1(F)F` [Example 115, 4-[4-cyano-6-[1-(2,2-difluoroethyl)pyrazol-4-yl]-2-methylindazol-3-yl]-N-[(1R)-2,2-difluorocyclopropyl]-2-(difluoromethoxy)-6-methoxybenzamide], the IC50 (GST-tagged SIK1) was 9.4 nM, the IC50 (GST-tagged SIK2) was 2.4 nM and the IC50 (GST-tagged SIK3) was less than 0.6 nM.
`CCn1cc(-c2cc(C(F)F)c3c(-c4cc(OC)c(C(=O)N[C@@H]5CC5(F)F)c(OC(F)F)c4)n(C)nc3c2)cn1` [Example 116, N-[(1R)-2,2-difluorocyclopropyl]-2-(difluoromethoxy)-4-[4-(difluoromethyl)-6-(1-ethylpyrazol-4-yl)-2-methylindazol-3-yl]-6-methoxybenzamide] gave an IC50 (GST-tagged SIK1) of 16.1 nM, an IC50 (GST-tagged SIK2) of 5.8 nM and an IC50 (GST-tagged SIK3) of 1.1 nM.
`COc1cc(-c2c3c(C(F)F)cc(-c4cnn(CC5(O)CCC5)c4)cc3nn2C)cc(OC(F)F)c1C(=O)N[C@@H]1CC1(F)F` [Example 117, N-[(1R)-2,2-difluorocyclopropyl]-2-(difluoromethoxy)-4-[4-(difluoromethyl)-6-[1-[(1-hydroxycyclobutyl)methyl]pyrazol-4-yl]-2-methylindazol-3-yl]-6-methoxybenzamide] was tested, and the IC50 (GST-tagged SIK1) was 12.5 nM, the IC50 (GST-tagged SIK2) was 9.3 nM and the IC50 (GST-tagged SIK3) was 1 nM.
